Measured values from US9102642B2, “Herbicidally active cyclic diones and derivatives thereof, processes for their preparation, compositions, and methods of controlling weeds” (Syngenta Limited, priority 2009, dated 2015).

Experiments:
Assay in all cases: Pre-emergence herbicidal activity, glasshouse pot test
Assay type in all cases: in vivo
Settings in all cases: 312 h, Rate 250 g/ha, evaluated after 13 days, 100=total damage to plant, 0=no damage to plant
[1] = tested on: Alopecurus myosuroides (ALOMY)
Experimental: (§1) Seeds of a variety of test species were sown in standard soil in pots. After cultivation for one day (pre-emergence) or after 8 days cultivation (post-emergence) under controlled conditions in a glasshouse (at 24/16° C., day/night; 14 hours light; 65% humidity), the plants were sprayed with an aqueous spray solution derived from the formulation of the technical active ingredient in acetone/water (50:50) solution containing 0.5% Tween 20 (polyoxyethelyene sorbitan monolaurate, CAS RN 9005-64-5). The test plants were then grown in a glasshouse under controlled conditions in a glasshouse (at 24/16° C., day/night; 14 hours light; 65% humidity) and watered twice daily. After 13 days for pre and post-emergence, the test was evaluated (100=total damage to plant; 0=no damage to plant). Test Plants: Lolium perenne (LOLPE), Alopecurus myosuroides (ALOMY), Echinochloa crus-galli (ECHCG), and Avena fatua (AVEFA). Pre-Emergence Activity

Avena fatua (AVEFA) = tested on: Avena fatua (AVEFA)
Experimental: as §1

[2] = tested on: Echinochloa crus-galli (ECHCG)
Experimental: as §1

Lolium perenne (LOLPE) = tested on: Lolium perenne (LOLPE)
Experimental: as §1

SMILES	pest or weed control at 250 g/ha [1]	pest or weed control at 250 g/ha (Avena fatua (AVEFA))	pest or weed control at 250 g/ha [2]	pest or weed control at 250 g/ha (Lolium perenne (LOLPE))
Cc1cc(Oc2ncccc2Cl)cc(C)c1C1=C(O)CCCC1=O [Compound A-16]	0%	0%	0%	0%
CCc1cc(Oc2ccc(Br)cc2)ccc1C1=C(O)C(C)(C)OC(C)(C)C1=O [Compound A-5]	10%	10%	40%	30%
CCc1cc(Oc2ccc(C(F)(F)F)cn2)ccc1C1=C(O)C(C)(C)OC(C)(C)C1=O [Compound A-9, 4-[4-(5-trifluoromethylpyridin-2-yloxy)-2-ethylphenyl]-2,2,6,6-tetramethylpyran-3,5-dione]	20%	0%	30%	60%
CCc1cc(Oc2ccc(Cl)cc2)ccc1C1=C(O)C(C)(C)OC(C)(C)C1=O [Compound A-4]	20%	20%	60%	60%
CCc1cc(Oc2cnc3cc(Cl)ccc3n2)ccc1C1=C(O)C(C)(C)OC(C)(C)C1=O [Compound A-10, 4-[4-(6-chloroquinoxalin-2-yloxy)-2-ethylphenyl]-2,2,6,6-tetramethylpyran-3,5-dione]	70%	90%	100%	100%
Cc1cc(Oc2cnc3cc(Cl)ccc3n2)cc(C)c1C1=C(O)C(C)(C)OC(C)(C)C1=O [Compound A-14]	30%	10%	20%	50%
CCc1cc(Oc2ccc(F)cc2)ccc1C1=C(O)C(C)(C)OC(C)(C)C1=O [Compound A-6]	60%	30%	100%	100%
CCc1cc(Oc2ccc(Cl)cc2Cl)ccc1C1=C(O)C(C)(C)OC(C)(C)C1=O [Compound A-2]	20%	0%	50%	70%
CCc1cc(Oc2ccc(Cl)c(F)c2)ccc1C1=C(O)C(C)(C)OC(C)(C)C1=O [Compound A-7, 4-[4-(4-chloro-3-fluorophenoxy)-2-ethylphenyl]-2,2,6,6-tetramethylpyran-3,5-dione]	40%	20%	60%	80%
CCc1cc(Oc2ccc(Cl)cc2F)ccc1C1=C(O)C(C)(C)OC(C)(C)C1=O [Compound A-3]	20%	10%	20%	20%
CCc1cc(Oc2ncc(Cl)cc2F)ccc1C1=C(O)C(C)(C)OC(C)(C)C1=O [Compound A-8]	40%	30%	100%	100%
CCc1cc(Oc2ncc(C(F)(F)F)cc2Cl)ccc1C1=C(O)C(C)(C)OC(C)(C)C1=O [Compound A-11]	90%	90%	100%	100%
